According to EP0393104B1, “MEASUREMENT OF PGE 2 (PROSTAGLANDIN E 2) LEVELS IN PATIENTS WITH CHRONIC INFLAMMATORY BOWEL DISEASE” (priority 1987, dated 1989):

Key:
[1] = test system: ulcerative proctosigmoiditis; format: in vivo, patients
Description: For patients maintained on SAZ (1 g b.i.d.) this treatment was kept unchanged throughout the trial. No other drugs were given.
(§1) The study was carried out as a block-randomized, double-blind trial. Before entry, clinical disease activity was assessed, and equilibrium in vivo dialysis of rectum was performed before the assessment of endoscopic and histologic disease activity. […] Primary stratification was done for patients already on maintenance treatment with SAZ. At day 15 the equilibrium in vivo dialysis of rectum was repeated, and clinical, endoscopic, and histologic activities were reassessed. Patients in complete clinical and endoscopic remission discontinued treatment with enemas, whereas the remainder continued therapy for another 14 days. In all cases equilibrium in vivo dialysis of rectum and assessment of disease activity were repeated at day 29. Withdrawal criteria included intolerance to treatment or deterioration (severe disease, C3) requiring systemic glucocorticoids.
The clinical activity was based on a diary in which the number of bowel movements and the presence or absence of blood were registered by the patient and the objective findings were registered by the investigator. To minimize variation among observers each patient was examined on all study days by the same investigator, who was unaware of the results of the rectal dialyses.

PGE2 = assay: Equilibrium in vivo dialysis of rectum with radioimmunoassay of PGE2 (enema trial); parameters: species or system patients; conditions: for Concentrations of PGE2 in rectal lumen: median, enema groups irrespective of SAZ (+/-), SAZ line = no enema, with SAZ maintenance; for effect of treatment with enemas on PGE2 concentrations in the rectal lumen: whole group, active UC, 2-4 weeks, 5-ASA p>0.5, prednisolone p<0.05 (Wilcoxon)
Description: as §1
In vivo dialysis of rectum was performed after insertion of a 12-cm-long dialysis bag (volume 4 ml; Visking seamless cellulose tubing 8/32 filled with Rheomacrodex@; Pharmacia, Uppsala, Sweden) containing 10% dextran (mean mol wt 40,000) in saline into the emptied rectum. To obtain equilibrium with the fluid covering the surface of rectal mucosa, the dialysis bag was left for 4 h before its contents were emptied into a test tube, which was stored immediately at -20°C (rectal dialysate) for analysis within 2 wk.
Prostaglandin E2 was measured as previously described in detail (K. Bukhave, J. Rask-Madsen J, 'Prostaglandin E2 in jejunal fluids and its potential diagnostic value for selecting patients with indomethacin-sensitive diarrhoea', 1981 European Journal of Clinical Investigation, 11:191-7) by a radioimmunologic method validated by gas chromatography-mass spectrometry (K. Bukhave, K Green, J. Rask-Madsen, 'Comparison of radioimmunological determinations with gas chromatography mass spectrometry dosage', 1983 Biomedical Mass Spectrometry, 10:265-8). The method included purification by extraction with ethylacetate/cyclo- hexane (1:1) and chromatography on microcolumns of Sephadex LH-20 (Pharmacia AB, Sweden) before performing the radioimmunoassay itself on the eluate fraction containing PGE2.

[2] = number of patients, enemas once daily 2-4 wk, 5-ASA n=13, prednisolone n=11
[3] = number of these patients on additional SAZ maintenance (figure in brackets)
[4] = clinical activity 2-3 (moderate-severe)
[5] = endoscopic activity 0 (inactive)
[6] = endoscopic activity 2 (moderate)

Row | SMILES | difficulties in retaining the enemas ([1]; human, in vivo) | Outcome of treatment: Unchanged or worse [1, 2] | Outcome of treatment: Unchanged or worse (on sulfasalazine) [1, 3] | Concentrations of PGE2 in rectal lumen (PGE2; clinical activity 0 (inactive)) | Concentrations of PGE2 in rectal lumen (PGE2; clinical activity 1 (mild)) | Concentrations of PGE2 in rectal lumen (PGE2; [4]) | Concentrations of PGE2 in rectal lumen (PGE2; [5]) | Concentrations of PGE2 in rectal lumen (PGE2; endoscopic activity 1 (mild)) | Concentrations of PGE2 in rectal lumen (PGE2; [6]) | Concentrations of PGE2 in rectal lumen (PGE2; endoscopic activity 3 (severe)) | PGE2 levels in the rectal lumen (PGE2; only those patients responding to treatment) | effect of treatment with enemas on PGE2 concentrations in the rectal lumen (PGE2) | Outcome of treatment: Clinical and endoscopic remission ([1]; number of patients, enemas once daily 2-4 wk, 5-ASA 1000 mg (n=13), prednisolone 25 mg (n=11)) | Outcome of treatment: Clinical but not endoscopic remission [1, 2] | Outcome of treatment: Clinical and endoscopic remission (on SAZ) ([1]; number of these patients on additional SAZ maintenance 2 g/day (figure in brackets)) | Outcome of treatment: Clinical but not endoscopic remission (on SAZ) [1, 3]
1 | Nc1ccc(O)c(C(=O)O)c1 [5-ASA, 5-amino-salicylic acid] | 2 | 6 | 3 | 0.71(n=7) (0.18-6.0) ng/ml | 24(n=5) (2.5-58) ng/ml | 33(n=8) (14-120) ng/ml | 0.75(n=3) (0.18-3.7) ng/ml | 5.5(n=4) (0.29-6.2) ng/ml | 24(n=8) (2.5-58) ng/ml | 31(n=5) (20-120) ng/ml | decreased toward control levels | No significant effects |  |  |  | 
2 | C[C@]12C=CC(=O)C=C1CC[C@@H]1[C@@H]2[C@@H](O)C[C@@]2(C)[C@H]1CC[C@]2(O)C(=O)CO [Prednisolone, prednisolone] |  | 2 (2) | 2 (2) | 1.6(n=9) (0.16-5.0) ng/ml | 5.4(n=6) (0.58-42) ng/ml | 9.5(n=3) (5.9-12) ng/ml | 0.82(n=8) (0.16-5.0) ng/ml | 2.8(n=7) (0.57-3.9) ng/ml | 10.5(n=3) (5.5-42) ng/ml |  |  | inhibited PGE2 concentrations significantly | 8 | 1 (1) | 3 | 1 (1)
